Source: the supplement of paper PMC10307832

Assays:
Experiment in all cases: relative viability (nuclei count vs DMSO), 5 days (fraction); higher = more cells survive
[1] = compound: C1=CC=C(C(=C1)C2=CC=C(C=C2)C3=CSC4=C3C(=C(C(=O)N4)C#N)O)O + N=C(N)NC(=N)NCCc1ccccc1 [Phenformin] (partner 250 µM)
Procedure, shortened: (§1)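 Lung cancer cell lines were seeded in 1536-well plates and dosed by pin tool the next day, with either a single drug or a fixed anchor-drug dose combined with five library-drug doses (not always all listed) spaced in √10 steps. Five days later, one step fixed the cells and stained their nuclei (final 0.05% Triton X-100, 1% formaldehyde, 1 ug/ml Hoechst), and nuclei were counted on 4× images. Relative viability is the nuclei count in treated wells divided by the count in vehicle wells, and each value is the median of duplicate plates.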

[2] = compound: C1=CC=C(C(=C1)C2=CC=C(C=C2)C3=CSC4=C3C(=C(C(=O)N4)C#N)O)O + CC1(C)CCC(c2ccc(Cl)cc2)=C(CN2CCN(c3ccc(C(=O)NS(=O)(=O)c4ccc(N[C@H](CCN5CCOCC5)CSc5ccccc5)c(S(=O)(=O)C(F)(F)F)c4)cc3)CC2)C1 [Navitoclax] (partner 0.5 µM)
Procedure, shortened: as §1

[3] = compound: CC1=CN2C(=O)C=C(N=C2C(=C1)C(C)NC3=CC=CC=C3)N4CCOCC4 [TGX 221] + CC(=O)Nc1cccc(-n2c(=O)n(C3CC3)c(=O)c3c(Nc4ccc(I)cc4F)n(C)c(=O)c(C)c32)c1 [Trametinib] (partner 0.02 µM)
Procedure, shortened: as §1

[4] = compound: CC1=CN2C(=O)C=C(N=C2C(=C1)C(C)NC3=CC=CC=C3)N4CCOCC4 [TGX 221] + CCNC(=O)c1noc(-c2cc(C(C)C)c(O)cc2O)c1-c1ccc(CN2CCOCC2)cc1 [Luminespib] (partner 0.01 µM)
Procedure, shortened: as §1

Cell Line	relative viability ([1]; first compound 0.08 µM)	relative viability ([1]; first compound 0.253 µM)	relative viability ([1]; first compound 0.8 µM)	relative viability ([1]; first compound 2.53 µM)	relative viability ([1]; first compound 8 µM)	relative viability ([2]; first compound 0.08 µM)	relative viability ([2]; first compound 0.253 µM)	relative viability ([2]; first compound 0.8 µM)	relative viability ([2]; first compound 2.53 µM)	relative viability ([2]; first compound 8 µM)	relative viability ([3]; first compound 0.08 µM)	relative viability ([3]; first compound 0.253 µM)	relative viability ([3]; first compound 0.8 µM)	relative viability ([3]; first compound 2.53 µM)	relative viability ([3]; first compound 8 µM)	relative viability ([4]; first compound 0.08 µM)	relative viability ([4]; first compound 0.253 µM)	relative viability ([4]; first compound 0.8 µM)	relative viability ([4]; first compound 2.53 µM)	relative viability ([4]; first compound 8 µM)
HCC-366	0.632	0.623	0.584	0.646	0.591	0.959	1.18	1.05	1.11	0.501	0.288	0.325	0.311	0.235	0.239	–	–	–	–	–
HCC-827	0.396	0.377	0.424	0.387	0.394	1	1.12	1.04	1.04	1.04	0.556	0.473	0.478	0.44	0.493	0.475	0.444	0.872	0.426	0.451
HOP-62	0.57	0.854	0.565	0.679	0.359	1.22	1.1	1.04	1.18	0.922	0.386	0.351	0.338	0.252	0.298	0.919	0.951	0.981	0.88	0.632
IA-LM	–	–	–	–	–	0.696	1.06	0.76	0.797	0.399	–	–	–	–	–	–	–	–	–	–
LC-2-ad	0.518	0.657	0.608	0.576	0.551	0.464	0.382	0.687	0.421	0.361	0.846	0.906	0.927	0.885	0.858	0.957	0.941	1.18	1.01	0.907
LCLC-97TM1	0.43	0.443	0.463	0.498	0.46	0.379	0.719	0.514	0.393	0.453	0.178	0.172	0.22	0.187	0.185	0.732	0.63	0.821	0.602	0.834
LCLC-103H	0.265	0.342	0.374	0.354	0.305	–	–	–	–	–	0.65	0.639	0.626	0.683	0.651	1.01	0.988	1.02	0.806	0.763
LK-2	–	0.466	0.376	0.661	0.245	–	–	0.895	0.87	0.683	0.725	0.716	0.847	0.823	0.749	0.17	0.2	0.187	0.214	0.207
LOU-NH91	0.716	0.726	0.655	0.616	0.63	0.693	0.722	0.658	0.638	0.551	0.818	0.741	0.756	0.774	0.709	0.332	0.358	0.323	0.317	0.31
LU99A	0.765	0.838	0.769	0.891	0.896	0.64	0.878	0.804	0.791	0.769	0.507	0.479	0.557	0.505	0.493	0.251	0.31	0.208	0.249	0.316
LXF-289	0.491	0.538	0.553	0.507	0.485	0.951	0.968	0.996	0.994	0.967	0.67	0.757	0.708	0.674	0.744	0.667	0.686	0.77	0.47	0.513
NCI-H358	0.25	0.39	0.373	0.353	0.283	–	–	–	–	–	0.13	0.127	0.153	0.132	0.132	0.285	0.37	0.319	0.007	0.29
NCI-H522	0.643	0.613	0.747	0.571	0.63	–	–	–	–	–	0.658	0.822	0.719	0.623	0.661	1.09	1.04	1.01	1.11	1.42
NCI-H650	0.474	0.531	0.448	0.465	0.44	–	–	–	–	–	0.932	0.894	0.974	0.908	0.861	0.759	0.774	0.783	0.721	0.753
NCI-H661	0.31	0.298	0.257	0.254	0.298	–	–	–	–	–	0.584	0.544	0.569	0.591	0.495	0.906	0.919	0.899	0.956	0.939
NCI-H1299	–	–	–	–	–	1.12	1.02	1.04	1.1	1.07	–	–	–	–	–	–	–	–	–	–
NCI-H1563	0.63	0.714	0.702	0.622	0.679	–	–	–	–	–	–	–	–	–	–	0.499	0.525	0.538	0.515	0.523
NCI-H1623	0.623	0.623	0.569	0.568	0.534	–	–	–	–	–	–	–	–	–	–	0.427	0.457	0.471	0.463	0.438
NCI-H1648	–	–	–	–	–	–	–	–	–	–	–	0.403	0.569	0.435	0.471	–	–	–	–	–
NCI-H1703	–	–	–	–	–	0.989	1.04	1.2	0.93	0.962	–	–	–	–	–	–	–	–	–	–
NCI-H2342	0.578	0.704	0.58	0.602	0.469	–	–	–	–	–	0.814	0.763	0.8	0.632	0.93	0.919	0.652	0.584	0.544	0.607
SW 900	0.484	0.895	0.534	0.638	0.405	–	–	–	–	–	–	0.613	0.871	0.575	0.5	0.18	0.167	0.153	0.132	0.148
